{
  "source": "patent US20110014226A1",
  "about": "“HIGH […] I[…]” (priority 2008, published 2011)",
  "key": {"[1]": {"test_system": "D5 binding to 5-helix", "test": "D5 Competitive Binding Assay (DCBA) high throughput screen with F19 counter-screen", "set-up": "species or system HIV-1", "conditions": "among the compounds listed in Table 2; DCBA primary screen vs F19 counter-screen", "text": "An in vitro binding assay was developed using D5 IgG conjugated to europium cryptate (Eu-D5) and a biotinylated gp41 mimetic molecule that presents the hydrophobic pocket in a stabilized structural context (termed 5-helix (or 5H) peptide). The assay readout is based on a fluorescence resonance energy transfer (FRET) format. Biotin-5-helix binds to a streptavidin-conjugated allophycocyanin (APC) substrate to form a 5H-SA-APC complex. When Eu-D5 binds to the hydrophobic pocket of biotin-5H, it brings the Eu into close proximity with the APC substrate to allow FRET from Eu to APC. When the reaction system is excited at a wavelength of 340 nm, the Eu signals at 620 nm. If the Eu is in close proximity to the APC, it excites the APC which results in long-lived emissions at 665 nm. Introducing a time delay (e.g., ˜100 μseconds) between the system excitation and fluorescence measurement allows the FRET signals to be cleared of non-specific short-lived emissions (“time-resolved FRET”). The resulting specific FRET signal indicative of the amount of Eu-D5 bound to biotin-5H can be quantified by the ratio of fluorescence [counts at 665 nm/fluorescence counts at 620 nm]×10,000. […]\nBriefly, the assay was performed in the following manner. […] The plate was then read using the Fusion Universal Microplate Analyzer (Packard Bioscience). […]"}, "[2]": {"test_system": "ccIZN36", "test": "ELISA of mouse antisera after immunization, coated with ccIZN36", "format": "in vivo", "conditions": "balb/c mice, 25 μg conjugate intramuscularly three times at 2-week intervals, Merck aluminum alum + IMO-2055; reciprocal endpoint titers by ELISA"}, "[3]": {"test_system": "CRM197", "conditions": "mouse, in vivo"}, "[4]": {"test_system": "5-helix", "conditions": "in vivo; for Post-dose 3 geometric mean antibody titer (GMT) elicited versus 5-helix: mouse"}, "[5]": {"test": "ELISA of mouse antisera after immunization with hapten-CRM197 conjugates, coated with biotinylated Compound 2.45", "format": "in vivo", "conditions": "balb/c mice, 25 μg conjugate intramuscularly three times at 2-week intervals, Merck aluminum alum + IMO-2055; reciprocal endpoint titers by ELISA"}, "[6]": {"test_system": "ccIZN17", "test": "ELISA of mouse antisera after immunization, coated with ccIZN17", "format": "in vivo", "conditions": "balb/c mice, 25 μg conjugate intramuscularly three times at 2-week intervals, Merck aluminum alum + IMO-2055; reciprocal endpoint titers by ELISA"}, "[7]": {"test": "ELISA of mouse antisera after immunization, coated with biotinylated Compound 2.58", "format": "in vivo", "conditions": "balb/c mice, 25 μg conjugate intramuscularly three times at 2-week intervals, Merck aluminum alum + IMO-2055; reciprocal endpoint titers by ELISA"}},
  "data": [
    {"smiles": "CCNC(=O)[C@]1(Cc2ccccc2)CCCN(C(=O)[C@@H](Cc2ccc3ccccc3c2)NC(=O)N2CC(C)NC(C)C2)C1", "note": "(stereo partly drawn) [Compound 1.1]", "values": [
      {"measurement": "specific inhibition of D5 binding relative to F19 inhibition", "setting": "[1]", "result": "the best in terms of specific inhibition of D5 binding relative to F19 inhibition"}
    ]},
    {"smiles": "CCNC(=O)[C@]1(Cc2ccccc2)CCCN(C(=O)[C@@H](Cc2ccc3ccccc3c2)NC(=O)N2CCNCC2)C1", "note": "[Compound 2.45]", "values": [
      {"measurement": "Post-dose 3 geometric mean antibody titer (GMT) elicited versus ccIZN36", "setting": "[2]", "result": "<100"},
      {"measurement": "Post-dose 3 geometric mean antibody titer (GMT) elicited versus CRM197", "setting": "[3]", "result": "1,600"},
      {"measurement": "binding activity of individual mouse sera in the 5H ELISA", "setting": "[4]", "result": "more pronounced binding activity"},
      {"measurement": "Post-dose 3 geometric mean antibody titer (GMT) elicited versus 5-helix", "setting": "[4]", "result": 400},
      {"measurement": "Post-dose 3 geometric mean antibody titer (GMT) elicited versus Compound 2.45", "setting": "[5]", "result": ">1,600,000"},
      {"measurement": "Post-dose 3 geometric mean antibody titer (GMT) elicited versus ccIZN17", "setting": "[6]", "result": "<100"},
      {"measurement": "Post-dose 3 geometric mean antibody titer (GMT) elicited versus Compound 2.58", "setting": "[7]", "result": ">1,600,000"}
    ]},
    {"smiles": "CCNC(=O)[C@]1(Cc2ccccc2)CCCN(C(=O)[C@@H](Cc2ccc(Cl)c(Cl)c2)NC(=O)N[C@@H]2CCCNC2)C1", "note": "[Compound 2.58]", "values": [
      {"measurement": "Post-dose 3 geometric mean antibody titer (GMT) elicited versus ccIZN36", "setting": "[2]", "result": "<100"},
      {"measurement": "Post-dose 3 geometric mean antibody titer (GMT) elicited versus CRM197", "setting": "[3]", "result": 400},
      {"measurement": "binding activity of individual mouse sera in the 5H ELISA", "setting": "[4]", "result": "more pronounced binding activity"},
      {"measurement": "Post-dose 3 geometric mean antibody titer (GMT) elicited versus 5-helix", "setting": "[4]", "result": 200},
      {"measurement": "Post-dose 3 geometric mean antibody titer (GMT) elicited versus Compound 2.45", "setting": "[5]", "result": ">1,600,000"},
      {"measurement": "Post-dose 3 geometric mean antibody titer (GMT) elicited versus ccIZN17", "setting": "[6]", "result": 200},
      {"measurement": "Post-dose 3 geometric mean antibody titer (GMT) elicited versus Compound 2.58", "setting": "[7]", "result": "713,155"}
    ]}
  ]
}
